According to patent publication US20220402935A1, “HETEROCYCLIC COMPOUND” (FIMECS, INC., priority 2019, published 2022):
Where a name gives a salt, the structure may show the parent alone.

Tests used:
IRAK-M [1] = molecular target: T1, IRAK-M (Homo sapiens, UniProt Q9Y616); assay: In vitro degradation activity of target protein (IRAK-M ELISA in THP1 cells); assay type: cell-based; set-up: host or cells: THP1 cells; conditions: 24 hours, second symbol of cell, read-out: IRAK-M 50% degradation concentration (DC50 value)
T1 sequence (Q9Y616 1-596): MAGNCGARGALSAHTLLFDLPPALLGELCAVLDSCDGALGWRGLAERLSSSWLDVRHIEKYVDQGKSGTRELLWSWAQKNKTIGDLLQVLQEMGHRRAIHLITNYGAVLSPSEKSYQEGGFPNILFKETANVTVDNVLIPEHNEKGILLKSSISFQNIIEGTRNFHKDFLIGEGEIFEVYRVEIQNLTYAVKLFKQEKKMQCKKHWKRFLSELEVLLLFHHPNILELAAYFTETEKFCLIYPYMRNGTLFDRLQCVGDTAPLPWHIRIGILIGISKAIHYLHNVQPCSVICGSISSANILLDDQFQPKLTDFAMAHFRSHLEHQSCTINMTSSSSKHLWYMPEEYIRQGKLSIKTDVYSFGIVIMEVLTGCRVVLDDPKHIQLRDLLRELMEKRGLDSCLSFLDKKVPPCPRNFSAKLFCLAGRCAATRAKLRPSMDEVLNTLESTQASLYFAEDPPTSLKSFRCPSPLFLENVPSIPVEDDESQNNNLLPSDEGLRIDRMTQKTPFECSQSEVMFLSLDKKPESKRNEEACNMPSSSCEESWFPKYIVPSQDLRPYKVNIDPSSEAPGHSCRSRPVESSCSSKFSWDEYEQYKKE
Protocol: In vitro degradation activities of target protein of the example compounds were evaluated using Enzyme-linked immuno-sorbent assay (ELISA) by the following assay steps. THP1 cells (ATCC, TIB-202) were cultured in RPMI-1640 supplemented with 10% FBS, lx sodium pyruvate, lx HEPES, D-(+)-glucose and 1% penicillin/streptomycin. THP1 cells were seeded at a density of 1×10^6 cells/well in 24-well plate and treated with DMSO control or test compound, and then incubated for 24 hours. The cells were collected and lysed on ice for 30 minutes in lysis buffer (PBS containing 0.1% Triton X-100) containing a protease inhibitor cocktail (Roche, Cat #11836170001). The lysates were sonicated for 30 sec ON/30 sec OFF for ten cycles and centrifuged for 10 minutes at 13k rpm at 4° C. Protein concentrations were determined by the BCA assay (Sigma, Cat #QPBCA-1KT). The ELISA assay was performed using the Human IRAK3/IRAKM/IRAK-M ELISA Kit (LifeSpan BioSciences, Cat #LS-F35271), and the protein levels of IRAK-M were evaluated according to the kit protocol. As to the IRAK-M degradation rate of test compounds, protein degradation rate (%) when the concentration of the test compound is […] described as A≥75%, 50%≤B<75%, 25%≤C<50%, D<25%, or 50% degradation concentration (DC50 value) described as A<0.03 μM, 0.03 μM≤B<0.1 μM, 0.1 μM≤C<0.3 μM, 0.3 μM≤D<1 μM, is shown in the table below.

IRAK-M [2] = molecular target: T1, IRAK-M; assay: IRAK-M binding inhibitory activity (KINOMEscan active site-dependent competitive assay); set-up: purchased Eurofins Discover X; conditions: for IC50: second symbol of cell, read-out: IRAK-M binding inhibition IC50 value; for remaining binding at 1 µM: concentration of the test compound 1 μM, first symbol of cell, read-out: IRAK-M binding inhibition activity % Ctrl
How it was run: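 Readout given as % Ctrl, with DMSO as 100% and a control compound as 0%, scaling the test compound signal between them. Binding to human IRAK-M was assessed by KINOMEscan competition at the kinase active site.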

[3] = molecular target: T2, human XIAP_BIR3 domain purified protein (Homo sapiens, UniProt P98170); assay: XIAP binding inhibitory activity (HTRF, b-Smac ligand); conditions: second symbol of cell; read-out: XIAP binding inhibition IC50 value
T2 construct: purchased R & D
How it was run: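 HTRF competition between compound and C-terminally biotinylated Smac peptide AVPIAQK for His-tagged XIAP BIR3, both diluted to 90 nM before addition, in pH 7.5 HEPES/NaCl/BSA/Triton buffer. Eu-cryptate anti-His and streptavidin-XL665 added, ≥4 h at room temperature in the dark; inhibition % from 665/615 nm ratio versus no-compound wells.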

T2 sequence (P98170 252-356 limits assumed): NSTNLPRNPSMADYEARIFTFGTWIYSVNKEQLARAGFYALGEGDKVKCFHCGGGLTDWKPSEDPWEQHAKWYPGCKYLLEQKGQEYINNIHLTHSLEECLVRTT

Row | SMILES | DC50 (IRAK-M [1]) [nM] | IC50 (IRAK-M [2]) [nM] | IC50 [3] [nM] | remaining binding at 1 µM (IRAK-M [2]) [%]
1 | CN[C@@H](C)C(=O)N[C@H](C(=O)N1CCN(C(=O)c2c(C(=O)N(C)CCOCCOCCOc3cc(CN4CCC(Oc5ccnc6ccsc56)CC4)on3)c3cc(F)c(F)cc3n2C)CC1)C1CCCCC1 [Example 1, 2-(4-((S)-2-Cyclohexyl-2-((S)-2-(methylamino)propanamido)acetyl)piperazine-1-carbonyl)-5,6-difluoro-N,1-dimethyl-N-(2-(2-(2-((5-((4-(thieno[3,2-b]pyridin-7-yloxy)piperidin-1-yl)methyl)isoxazol-3-yl)oxy)ethoxy)ethoxy)ethyl)-1H-indole-3-carboxamide hydrochloride] | 300 to 1000 | 300 to 1000 | 300 to 3000 | 
2 | CN[C@@H](C)C(=O)N[C@H](C(=O)N1CCN(C(=O)c2c(C(=O)NCCOCCOCCOc3cc(CN4CCC(Oc5ccnc6ccsc56)CC4)on3)c3cc(F)c(F)cc3n2C)[C@@H](C)C1)C1CCCCC1 [Example 12, 2-((S)-4-((S)-2-cyclohexyl-2-((S)-2-(methylamino)propanamido)acetyl)-2-methylpiperazine-1-carbonyl)-5,6-difluoro-1-methyl-N-(2-(2-(2-((5-((4-(thieno[3,2-b]pyridin-7-yloxy)piperidin-1-yl)methyl)isoxazol-3-yl)oxy)ethoxy)ethoxy)ethyl)-1H-indole-3-carboxamide] | 100 to 300 |  | 300 to 3000 | < 25
3 | CN[C@@H](C)C(=O)N[C@H](C(=O)N1CCN(C(=O)c2cc3cc(F)c(F)cc3n2CC(=O)N(C)CCOCCOCCOCCOc2cc(CN3CCC(Oc4ccnc5ccsc45)CC3)on2)CC1)C1CCCCC1 [Example 24, (S)-N-((S)-1-Cyclohexyl-2-(4-(5,6-difluoro-1-(3-methyl-2-oxo-14-((5-((4-(thieno[3,2-b]pyridin-7-yloxy)piperidin-1-yl)methyl)isoxazol-3-yl)oxy)-6,9,12-trioxa-3-azatetradecyl)-1H-indole-2-carbonyl)piperazin-1-yl)-2-oxoethyl)-2-(methylamino)propanamide hydrochloride] | 300 to 1000 |  | 3000 to 30000 | < 25
4 | CN[C@@H](C)C(=O)N[C@H](C(=O)N1CCN(C(=O)c2cc3cc(F)c(F)cc3n2CC(=O)N2CCC[C@H]2COc2cc(CN3CCC(Oc4ccnc5ccsc45)CC3)on2)CC1)C1CCCCC1 [Example 25, (S)-N-((S)-1-Cyclohexyl-2-(4-(5,6-difluoro-1-(2-oxo-2-((S)-2-(((5-((4-(thieno[3,2-b]pyridin-7-yloxy)piperidin-1-yl)methyl)isoxazol-3-yl)oxy)methyl)pyrrolidin-1-yl)ethyl)-1H-indole-2-carbonyl)piperazin-1-yl)-2-oxoethyl)-2-(methylamino)propanamide hydrochloride] | 30 to 100 |  | 3000 to 30000 | < 25
5 | CN[C@@H](C)C(=O)N[C@H](C(=O)N1CCN(C(=O)c2cc3cc(F)ccc3n2CC(=O)N2CCC[C@H]2COc2cc(CN3CCC(Oc4ccnc5ccsc45)CC3)on2)CC1)C1CCCCC1 [Example 26, (S)-N-((S)-1-Cyclohexyl-2-(4-(5-fluoro-1-(2-oxo-2-((S)-2-(((5-((4-(thieno[3,2-b]pyridin-7-yloxy)piperidin-1-yl)methyl)isoxazol-3-yl)oxy)methyl)pyrrolidin-1-yl)ethyl)-1H-indole-2-carbonyl)piperazin-1-yl)-2-oxoethyl)-2-(methylamino)propanamide] | < 30 | 300 to 1000 | 3000 to 30000 | 
6 | CN[C@@H](C)C(=O)N[C@H](C(=O)N1CCN(C(=O)c2cc3cc(F)c(F)cc3n2CC(=O)N2CCC[C@H]2COc2cc(CN3CCC(Oc4ccnc5ccsc45)CC3)on2)[C@@H](C)C1)C1CCCCC1 [Example 27, (S)-N-((S)-1-Cyclohexyl-2-((S)-4-(5,6-difluoro-1-(2-oxo-2-((S)-2-(((5-((4-(thieno[3,2-b]pyridin-7-yloxy)piperidin-1-yl)methyl)isoxazol-3-yl)oxy)methyl)pyrrolidin-1-yl)ethyl)-1H-indole-2-carbonyl)-3-methylpiperazin-1-yl)-2-oxoethyl)-2-(methylamino)propanamide] | < 30 | 300 to 1000 | 3000 to 30000 | 
7 | CN[C@@H](C)C(=O)N[C@H](C(=O)N1CCN(C(=O)c2cc3cc(F)ccc3n2CC(=O)N2CCC[C@H]2COc2cc(CN3CCC(Oc4ccnc5ccsc45)CC3)on2)[C@@H](C)C1)C1CCCCC1 [Example 28, (S)-N-((S)-1-Cyclohexyl-2-((S)-4-(5-fluoro-1-(2-oxo-2-((S)-2-(((5-((4-(thieno[3,2-b]pyridin-7-yloxy)piperidin-1-yl)methyl)isoxazol-3-yl)oxy)methyl)pyrrolidin-1-yl)ethyl)-1H-indole-2-carbonyl)-3-methylpiperazin-1-yl)-2-oxoethyl)-2-(methylamino)propanamide] | < 30 | 300 to 1000 | 3000 to 30000 | 
8 | CN[C@@H](C)C(=O)N[C@H](C(=O)N1CCN(C(=O)c2cc3cc(F)c(F)cc3n2CCOCCOCCOCCOc2cc(CN3CCC(Oc4ccnc5ccsc45)CC3)on2)CC1)C1CCCCC1 [Example 29, (S)-N-((S)-1-cyclohexyl-2-(4-(5,6-difluoro-1-(2-(2-(2-(2-((5-((4-(thieno[3,2-b]pyridin-7-yloxy)piperidin-1-yl)methyl)isoxazol-3-yl)oxy)ethoxy)ethoxy)ethoxy)ethyl)-1H-indole-2-carbonyl)piperazin-1-yl)-2-oxoethyl)-2-(methylamino)propanamide] | 300 to 1000 |  | 3000 to 30000 | < 25
9 | CN[C@@H](C)C(=O)N[C@H](C(=O)N1CCN(C(=O)c2c(Cl)c3ccccc3n2CC(=O)N(C)CCOCCOCCOCCOc2cc(CN3CCC(Oc4ccnc5ccsc45)CC3)on2)CC1)C1CCCCC1 [Example 32, (S)-N-((S)-2-(4-(3-chloro-1-(3-methyl-2-oxo-14-((5-((4-(thieno[3,2-b]pyridin-7-yloxy)piperidin-1-yl)methyl)isoxazol-3-yl)oxy)-6,9,12-trioxa-3-azatetradecyl)-1H-indole-2-carbonyl)piperazin-1-yl)-1-cyclohexyl-2-oxoethyl)-2-(methylamino)propanamide] | 300 to 1000 |  | 3000 to 30000 | < 25
10 | CN[C@@H](C)C(=O)N[C@H](C(=O)N1CCN(C(=O)c2cc3cc(F)c(F)cc3n2CC(=O)N2CCC[C@H]2COc2cc(CN3CCC(Oc4ccnc5ccsc45)CC3)on2)CC1)C1CCC(F)(F)CC1 [Example 48, (S)-N-((S)-2-(4-(5,6-difluoro-1-(2-oxo-2-((S)-2-(((5-((4-(thieno[3,2-b]pyridin-7-yloxy)piperidin-1-yl)methyl)isoxazol-3-yl)oxy)methyl)pyrrolidin-1-yl)ethyl)-1H-indole-2-carbonyl)piperazin-1-yl)-1-(4,4-difluorocyclohexyl)-2-oxoethyl)-2-(methylamino)propanamide] | 100 to 300 |  | 3000 to 30000 | 
11 | CN[C@@H](C)C(=O)N[C@H](C(=O)N1CCN(C(=O)c2cc3cc(F)c(F)cc3n2CC(=O)N2CCC[C@H]2COc2cc(CN3CCC(Oc4ccnc5ccsc45)CC3)on2)[C@@H](C)C1)C1CCC(F)(F)CC1 [Example 49, (S)-N-((S)-2-((S)-4-(5,6-difluoro-1-(2-oxo-2-((S)-2-(((5-((4-(thieno[3,2-b]pyridin-7-yloxy)piperidin-1-yl)methyl)isoxazol-3-yl)oxy)methyl)pyrrolidin-1-yl)ethyl)-1H-indole-2-carbonyl)-3-methylpiperazin-1-yl)-1-(4,4-difluorocyclohexyl)-2-oxoethyl)-2-(methylamino)propanamide] | 30 to 100 |  | 3000 to 30000 | 
